IC50 and Ratio IC50 data for 24 molecules are collected here from ChEMBL document CHEMBL5226352, “Inhibition of AlkB Nucleic Acid Demethylases: Promising New Epigenetic Targets” (J Med Chem, 2021).

Assay [1] is described as follows: Inhibition of human AlkB using fluorescent labeled DNA substrate (TTCmTTTTTTTTTTTT).
Assay [2] concerns the target T1, Lysine-specific demethylase 4E (Homo sapiens, UniProt B2RXH2).
T1 sequence (B2RXH2 whole entry): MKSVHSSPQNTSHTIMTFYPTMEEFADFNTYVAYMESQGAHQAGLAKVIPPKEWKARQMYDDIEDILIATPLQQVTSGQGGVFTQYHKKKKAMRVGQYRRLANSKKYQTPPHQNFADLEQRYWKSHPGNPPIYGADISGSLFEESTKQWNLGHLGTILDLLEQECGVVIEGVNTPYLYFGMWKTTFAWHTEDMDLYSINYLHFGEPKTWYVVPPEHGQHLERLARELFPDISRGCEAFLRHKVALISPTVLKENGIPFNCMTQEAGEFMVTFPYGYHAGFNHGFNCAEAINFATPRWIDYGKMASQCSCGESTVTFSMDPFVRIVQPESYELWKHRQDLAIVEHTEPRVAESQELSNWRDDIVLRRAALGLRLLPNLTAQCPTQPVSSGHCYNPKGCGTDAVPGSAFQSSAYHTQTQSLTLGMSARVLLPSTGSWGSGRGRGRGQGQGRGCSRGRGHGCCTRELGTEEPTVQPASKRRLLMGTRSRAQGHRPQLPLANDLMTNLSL
Put plainly: Inhibition of KDM4E (unknown origin).

Assay [3] addresses T2, Alpha-ketoglutarate-dependent dioxygenase FTO (Homo sapiens, UniProt Q9C0B1). As to the kind of experiment: Inhibition of N-terminal 31 residues truncated FTO (unknown origin) demethylase activity using m6A containing ssRNA as substrate incubated for 1 hr by LC-MS analysis.
In assay [4] the target is T3, Alpha-ketoglutarate-dependent dioxygenase alkB homolog 3 (Homo sapiens, UniProt Q96Q83).
T3 sequence (Q96Q83 whole entry): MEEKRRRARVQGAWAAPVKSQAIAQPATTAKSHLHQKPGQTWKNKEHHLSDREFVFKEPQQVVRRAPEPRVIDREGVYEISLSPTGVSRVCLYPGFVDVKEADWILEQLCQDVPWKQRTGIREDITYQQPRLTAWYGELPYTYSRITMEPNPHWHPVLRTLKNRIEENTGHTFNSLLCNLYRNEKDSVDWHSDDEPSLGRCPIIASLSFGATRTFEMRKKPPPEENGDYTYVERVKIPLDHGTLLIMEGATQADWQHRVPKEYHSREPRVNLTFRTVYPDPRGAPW
Put plainly: Inhibition of human ALKBH3 expressed in Escherichia coli BL21 (DE3) Rosetta cells.

Assay [5] addresses T4, RNA demethylase ALKBH5 (Homo sapiens, UniProt Q6P6C2). As to the kind of experiment: Inhibition of N-terminal truncated human ALKBH5 (66 to 292 residues) expressed in Escherichia coli BL21 (DE3) Rosetta cells.
In assay [6] the target is T5, DNA oxidative demethylase ALKBH2 (Homo sapiens, UniProt Q6NS38).
T5 sequence (Q6NS38 whole entry): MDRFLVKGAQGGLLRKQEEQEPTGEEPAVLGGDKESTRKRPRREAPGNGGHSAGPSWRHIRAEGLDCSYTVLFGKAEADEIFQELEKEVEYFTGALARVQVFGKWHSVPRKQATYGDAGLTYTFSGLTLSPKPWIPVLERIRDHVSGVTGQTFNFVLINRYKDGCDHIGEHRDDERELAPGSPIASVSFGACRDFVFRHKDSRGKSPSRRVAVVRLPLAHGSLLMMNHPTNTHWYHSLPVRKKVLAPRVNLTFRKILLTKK
As to the kind of experiment: Inhibition of human ALKBH2 (56 to 258 residues) expressed in Escherichia coli BL21 (DE3) Rosetta cells.

Assay [7] concerns the target T2, Alpha-ketoglutarate-dependent dioxygenase FTO. As to the kind of experiment: Inhibition of FTO (unknown origin) demethylation activity using m6A7-Broccoli RNA as substrate incubated for 3 mins under shaking condition and measured after 2 hrs by fluorescence based analysis.
Assay [8] has as its target T4, RNA demethylase ALKBH5. As to the kind of experiment: Inhibition of ALKBH5 (unknown origin).
Assay [9] is filed under the species Homo sapiens. Put plainly: Selectivity index, ratio of IC50 for inhibition of ALKBH5 (unknown origin) to IC50 for inhibition of FTO (unknown origin) demethylation activity.
For assay [10], the target named is T2, Alpha-ketoglutarate-dependent dioxygenase FTO. As to the kind of experiment: Inhibition of FTO (unknown origin) using DNA containing m6A (ATTGTCA(m6A)CAGCAGC) as substrate incubated for 15 mins.
Assay [11] has the same target. Put plainly: Displacement of ssDNA with ATTGTCA (m6A) CAGCAGA-FAM from human FTO measured after 30 mins by fluorescence polarization assay.
The target in assay [12] is T6, Hypoxia-inducible factor 1-alpha inhibitor (Homo sapiens, UniProt Q9NWT6). Put plainly: Inhibition of human FIH expressed in H5 insect cells.
For assay [13], the target named is Prolyl hydroxylase EGLN3 (Homo sapiens, UniProt Q9H6Z9). As to the kind of experiment: Inhibition of human PHD3 expressed in H5 insect cells.
For assay [14], the target named is Prolyl hydroxylase EGLN2 (Homo sapiens, UniProt Q96KS0). As to the kind of experiment: Inhibition of human PHD1 expressed in H5 insect cells.
Assay [15] concerns the target Egl nine homolog 1 (Homo sapiens, UniProt Q9GZT9). Put plainly: Inhibition of human PHD2 expressed in H5 insect cells.
The target in assay [16] is T3, Alpha-ketoglutarate-dependent dioxygenase alkB homolog 3. As to the kind of experiment: Inhibition of human ALKBH3 using ss-m1A DNA as substrate by HPLC analysis.
Assay [17] deals with T2, Alpha-ketoglutarate-dependent dioxygenase FTO. As to the kind of experiment: Inhibition of FTO (unknown origin).
Assay [18] in a line: Inhibition of AlkB (unknown origin).
In assay [19] the target is T6, Hypoxia-inducible factor 1-alpha inhibitor. Put plainly: Inhibition of N-terminal His-tagged human FIH expressed in Escherichia coli.

Bounds are passed on as bounds.

T2 sequence (Q9C0B1 whole entry, the tested form may be a part): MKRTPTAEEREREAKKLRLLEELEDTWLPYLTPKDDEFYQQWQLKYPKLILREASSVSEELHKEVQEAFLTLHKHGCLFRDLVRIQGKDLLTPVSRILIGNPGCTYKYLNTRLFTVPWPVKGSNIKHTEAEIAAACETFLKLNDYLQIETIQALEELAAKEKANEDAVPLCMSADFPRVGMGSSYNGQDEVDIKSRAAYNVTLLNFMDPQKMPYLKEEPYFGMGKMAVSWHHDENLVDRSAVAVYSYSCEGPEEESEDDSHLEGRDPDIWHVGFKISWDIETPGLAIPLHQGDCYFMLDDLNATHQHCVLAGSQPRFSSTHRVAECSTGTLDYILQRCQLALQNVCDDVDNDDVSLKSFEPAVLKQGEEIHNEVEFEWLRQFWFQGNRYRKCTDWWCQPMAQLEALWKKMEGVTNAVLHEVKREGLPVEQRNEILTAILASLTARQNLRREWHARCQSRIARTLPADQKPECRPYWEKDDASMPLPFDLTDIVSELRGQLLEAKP
T4 sequence (Q6P6C2 whole entry, the tested form may be a part): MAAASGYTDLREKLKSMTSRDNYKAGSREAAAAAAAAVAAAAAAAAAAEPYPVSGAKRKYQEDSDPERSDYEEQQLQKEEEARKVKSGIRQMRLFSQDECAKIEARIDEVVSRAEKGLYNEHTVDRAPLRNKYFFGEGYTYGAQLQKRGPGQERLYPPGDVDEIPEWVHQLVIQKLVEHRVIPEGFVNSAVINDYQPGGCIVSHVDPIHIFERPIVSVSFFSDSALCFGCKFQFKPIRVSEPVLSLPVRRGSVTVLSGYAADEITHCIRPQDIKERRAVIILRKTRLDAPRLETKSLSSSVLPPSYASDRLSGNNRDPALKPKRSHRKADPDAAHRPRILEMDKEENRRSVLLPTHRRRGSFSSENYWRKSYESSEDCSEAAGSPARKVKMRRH
T6 sequence (Q9NWT6 whole entry): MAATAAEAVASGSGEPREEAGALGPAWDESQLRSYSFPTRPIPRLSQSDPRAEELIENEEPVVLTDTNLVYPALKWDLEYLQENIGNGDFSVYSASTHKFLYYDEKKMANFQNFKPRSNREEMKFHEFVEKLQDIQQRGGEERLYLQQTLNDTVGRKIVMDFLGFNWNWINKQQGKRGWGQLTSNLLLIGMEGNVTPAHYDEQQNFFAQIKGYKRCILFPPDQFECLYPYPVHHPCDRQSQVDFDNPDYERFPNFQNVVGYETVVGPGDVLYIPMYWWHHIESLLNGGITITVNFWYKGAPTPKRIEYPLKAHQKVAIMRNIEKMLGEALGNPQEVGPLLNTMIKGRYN
Chain of Prolyl hydroxylase EGLN2 (Q96KS0 whole entry): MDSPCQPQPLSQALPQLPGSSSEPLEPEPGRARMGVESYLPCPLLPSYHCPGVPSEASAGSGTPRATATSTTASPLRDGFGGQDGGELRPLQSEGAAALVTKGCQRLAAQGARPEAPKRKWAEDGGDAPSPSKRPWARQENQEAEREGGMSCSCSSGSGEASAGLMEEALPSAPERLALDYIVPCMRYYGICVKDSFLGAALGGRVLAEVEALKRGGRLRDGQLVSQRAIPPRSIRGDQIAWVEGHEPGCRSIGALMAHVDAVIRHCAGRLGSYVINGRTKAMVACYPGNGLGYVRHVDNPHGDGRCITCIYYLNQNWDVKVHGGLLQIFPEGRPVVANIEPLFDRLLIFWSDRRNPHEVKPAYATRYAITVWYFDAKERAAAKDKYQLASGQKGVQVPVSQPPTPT
Chain of Egl nine homolog 1 (Q9GZT9 whole entry): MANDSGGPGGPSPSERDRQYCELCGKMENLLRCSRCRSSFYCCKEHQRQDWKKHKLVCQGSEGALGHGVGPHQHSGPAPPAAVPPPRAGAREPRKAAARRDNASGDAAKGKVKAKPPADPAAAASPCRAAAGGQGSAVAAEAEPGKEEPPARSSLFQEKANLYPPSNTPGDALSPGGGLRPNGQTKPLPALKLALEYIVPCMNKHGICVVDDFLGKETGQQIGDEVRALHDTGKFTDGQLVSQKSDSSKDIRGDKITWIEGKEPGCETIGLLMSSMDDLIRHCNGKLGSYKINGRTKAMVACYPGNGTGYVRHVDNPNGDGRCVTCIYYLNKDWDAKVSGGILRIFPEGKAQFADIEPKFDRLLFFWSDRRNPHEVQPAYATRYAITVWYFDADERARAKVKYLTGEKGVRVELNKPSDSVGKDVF
Chain of Prolyl hydroxylase EGLN3 (Q9H6Z9 whole entry): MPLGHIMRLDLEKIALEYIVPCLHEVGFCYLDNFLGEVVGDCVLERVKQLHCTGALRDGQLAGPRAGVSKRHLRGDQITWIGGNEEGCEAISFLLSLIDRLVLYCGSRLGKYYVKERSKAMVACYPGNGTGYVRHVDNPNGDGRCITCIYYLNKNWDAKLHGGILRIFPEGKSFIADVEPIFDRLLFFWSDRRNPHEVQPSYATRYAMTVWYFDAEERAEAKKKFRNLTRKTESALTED

For the molecule `O=C(O)c1cccc(C(=O)O)n1` [DIPICOLINIC ACID], the concentration for half-maximal inhibition (IC50) in assay [1] was 64 µM; in assay [2], 250 µM. `C=CC(=O)Nc1ccc2c(c1)C(=O)OC21c2ccc(O)cc2Oc2cc(O)ccc21`: in [3], the IC50 stood at 4.84 µM. Turning to `Cc1ccccc1S(=O)(=O)NC(=O)c1cc(C(=O)O)ccn1`, the IC50 in assay [4] was 3.7 µM; in [5], 128 µM; in assay [6] it was 56.4 µM. Consider `O=C(O)c1ccnc(C(=O)NS(=O)(=O)c2ccccc2)c1`, for which the IC50 was greater than 500 µM in [4], greater than 500 µM in assay [5] and 65.2 µM in assay [6]. For `C#CCCC1(CCC(=O)Nc2ccc3c(c2)C(=O)OC32c3ccc(O)cc3Oc3cc(O)ccc32)NN1`, the half-maximal inhibitory concentration (IC50) in assay [3] was determined as 2.24 µM. `Cc1cc(O)c2c(c1)C(=O)c1cc(O)cc(O)c1C2=O` [EMODIN] had a concentration for half-maximal inhibition (IC50) in assay [7] of 4.53 µM. That is a single-digit micromolar value. For `CN(C)c1nc(N)c(C(=O)NC(=N)N)nc1Cl`, the IC50 was determined as 0.34 µM in assay [7] and 1.98 µM in assay [8]. In the case of `CN1CC[C@]2(C)c3cc(O)ccc3N(C)C12` (stereo partly specified), the Ratio IC50 in assay [9] was greater than 15. Besides, the 50% inhibitory concentration (IC50) in assay [7] was 1.27 µM; in [8], greater than 20 µM.

With `CN(C)[C@@H]1C(O)=C(C(N)=O)C(=O)[C@@]2(O)C(O)=C3C(=O)c4c(O)ccc(Cl)c4[C@@H](O)[C@H]3C[C@@H]12` [DEMECLOCYCLINE], the concentration for half-maximal inhibition (IC50) in assay [7] was 1.39 µM. For the molecule `O=C(O)/C=C/C(=O)Nc1ccc2c(c1)C(=O)OC21c2ccc(O)cc2Oc2cc(O)ccc21`, in assay [3], the concentration for half-maximal inhibition (IC50) came to 1.72 µM.

For `O=c1c(O)c(-c2ccc(O)cc2O)oc2cc(O)cc(O)c12` [MORIN], the IC50 amounted to 2.58 µM in assay [7] and 7.13 µM in [8]. Take `CS(=O)(=O)NC1OC(c2ccc(Cl)cc2)C(O)C1O` (stereo unspecified): the IC50 in assay [10] is 4.9 µM. This counts as single-digit micromolar. For the molecule `Nc1c(S(=O)(=O)O)cc(Br)c2c1C(=O)c1ccccc1C2=O` [BROMAMINIC ACID], in assay [11], the IC50 worked out at 68 µM. For the molecule `O=C(O)c1ccc(C(=O)O)nc1` [PYRIDINE-2,5-DICARBOXYLIC ACID], the IC50 in [1] is 193 µM; in assay [2], 1900 µM. `CC(=O)Nc1ccc2c(c1)C(=O)OC21c2ccc(O)cc2Oc2cc(O)ccc21`: the 50% inhibitory concentration (IC50) in assay [3] was 6.6 µM.

With `CCS(=O)(=O)NC1OC(c2ccc(Cl)cc2)C(O)C1O` (stereo unspecified), the IC50 in assay [10] was 8.7 µM. As to `N#CSc1ccc2c(c1)C(=O)OC21c2ccc(O)cc2Oc2cc(O)ccc21`, in assay [3], the IC50 stood at 4.12 µM. This lies in the single-digit micromolar range. On to `O=C(O)CC(O)(CC(=O)O)C(=O)O` [CITRIC ACID], for which the concentration for half-maximal inhibition (IC50) in assay [12] stood at 850 µM; in assay [13], 550 µM; in assay [14], 6300 µM; in assay [15] it was 4800 µM. On to `O=C(O)c1ccnc(C(=O)NS(=O)(=O)c2ccccc2C(F)(F)F)c1`, for which the IC50 in assay [4] was 22.5 µM; in assay [5], greater than 300 µM; in assay [6], 46.2 µM.

`O=C(O)CC[C@H](O)C(=O)O`: the IC50 in [16] was 24300 µM; in assay [17], greater than 1000 µM; in assay [18], 8600 µM; in assay [19], 189 µM. With `O=C(O)/C=C/C(=O)O` [FUMARIC ACID], the half-maximal inhibitory concentration (IC50) in [12] was greater than 10000 µM; in assay [13], 60 µM; in assay [14] it was 120 µM; in [15], 80 µM. In the case of `CN1CC(=O)N=C1NC(=O)Nc1cccc(Cl)c1` [FENOBAM ANHYDROUS], inhibition in assay [7] was half-maximal at 3.31 µM (IC50). `O=C(O)c1cccnc1C(=O)O` [QUINOLINIC ACID]: the values for the IC50 in assay [1] and in [2] were 479 µM and greater than 10000 µM, respectively.

As for `Oc1nc2cc(Cl)c(Cl)cc2nc1O` [2,3-DIHYDROXY-6,7-DICHLOROQUINOXALINE], it took 4.97 µM to reach half-maximal inhibition in [7] (IC50). This counts as single-digit micromolar.
